In patent US10259847B2, “Beta-hairpin peptidomimetics” (POLYPHOR AG, priority 2014, dated 2019):
Where a SMILES comes first, the peptide text is derived from it. Bridges are numbered along the chain shown (N, C = ends). [ ]: non-standard residue; d: D form. Tle = CC(C)(C)[C@H](N)C(=O)O; dDab = NCC[C@@H](N)C(=O)O; Orn = NCCC[C@H](N)C(=O)O; Dab = NCC[C@H](N)C(=O)O; Dap = NC[C@H](N)C(=O)O

Legend:
Assay type in all cases: cell-based
[1] = system: human red blood cells (hRBC); assay: Hemolysis of human red blood cells; settings: red cells of human, 1 h, 100
Protocol: Stock solutions were kept at +4° C., light protected.
Percent hemolysis was calculated as follows: (OD540peptide/OD540H2O)×100%.

[2] = system: Escherichia coli ATCC 25922; settings: ATCC 25922
Outline: (§1)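 Peptide MICs were determined by NCCLS broth microdilution in cation-adjusted Mueller-Hinton II broth. Inoculum was about 10^6 CFU/mL, matched to 0.5 McFarland, with peptides in two-fold serial dilutions. The broth contained Polysorbate 80 at 0.002% final concentration.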

[3] = system: Klebsiella pneumoniae ATCC 13883; settings: ATCC 13883
Outline: as §1

[4] = system: Acinetobacter baumannii DSM 30008; settings: DSM 30008
Outline: as §1

Escherichia coli ATCC 25922 MIC [2] [µg/mL]	Klebsiella pneumoniae ATCC 13883 MIC [3] [µg/mL]	Acinetobacter baumannii DSM 30008 MIC [4] [µg/mL]	Compound	Hemolysis at 100 μg/mL [1] [%]
0.5	0.5	0.5	CC(C)C[C@@H]1NC(=O)[C@@H]2CCCN2C(=O)[C@H]2CCCN2C(=O)[C@H](CO)NC(=O)[C@@H]2CC(=O)NCC[C@H](NC1=O)C(=O)N[C@@H](Cc1ccc(O)cc1)C(=O)N[C@@H](CCN)C(=O)N[C@@H](CCCN)C(=O)N[C@@H](CCN)C(=O)N[C@@H](CCN)C(=O)N[C@@H](Cc1c[nH]c3ccccc13)C(=O)N[C@@H](CCN)C(=O)N[C@@H](C(C)(C)C)C(=O)N2 [Example 32, cyclo(-Leu-Dab-Tyr-Dab-Orn-Dab-Dab-Trp-Dab-tBuGly-Asp-Ser-^DPro-Pro-)] (HELM PEPTIDE1{L.[Dab].Y.[Dab].[Orn].[Dab].[Dab].W.[Dab].[CC(C)(C)[C@H](N[*:1])C(=O)[*:2]].D.S.[dP].P}$PEPTIDE1,PEPTIDE1,2:R3-11:R3|PEPTIDE1,PEPTIDE1,1:R1-14:R2$$$V2.0)	1
1	4	1	CC(C)C[C@@H]1NC(=O)[C@@H]2CCCN2C(=O)[C@H]2CCCN2C(=O)[C@H](CO)NC(=O)[C@@H]2CC(=O)NCCCC[C@H](NC1=O)C(=O)N[C@@H](Cc1ccc(O)cc1)C(=O)N[C@@H](CCN)C(=O)N[C@@H](CCCN)C(=O)N[C@@H](CCN)C(=O)N[C@@H](CCN)C(=O)N[C@@H](Cc1c[nH]c3ccccc13)C(=O)N[C@@H](CCN)C(=O)N[C@@H](C(C)(C)C)C(=O)N2 [Example 33, cyclo(-Leu-Lys-Tyr-Dab-Orn-Dab-Dab-Trp-Dab-tBuGly-Asp-Ser-^DPro-Pro-)] (HELM PEPTIDE1{L.K.Y.[Dab].[Orn].[Dab].[Dab].W.[Dab].[CC(C)(C)[C@H](N[*:1])C(=O)[*:2]].D.S.[dP].P}$PEPTIDE1,PEPTIDE1,2:R3-11:R3|PEPTIDE1,PEPTIDE1,1:R1-14:R2$$$V2.0)	1
0.5	0.5	1	CC(C)C[C@@H]1NC(=O)[C@@H]2CCCN2C(=O)[C@H]2CCCN2C(=O)[C@H](CO)NC(=O)[C@@H]2CNC(=O)CC[C@H](NC1=O)C(=O)N[C@@H](Cc1ccc(O)cc1)C(=O)N[C@@H](CCN)C(=O)N[C@@H](CCCN)C(=O)N[C@H](CCN)C(=O)N[C@@H](CCN)C(=O)N[C@@H](Cc1c[nH]c3ccccc13)C(=O)N[C@@H](CCN)C(=O)N[C@@H](C(C)(C)C)C(=O)N2 [Example 34, cyclo(-Leu-Glu-Tyr-Dab-Orn-^DDab-Dab-Trp-Dab-tBuGly-Dap-Ser-^DPro-Pro-)] (cyclo(LEY[Dab][Orn][dDab][Dab]W[Dab][Tle][Dap]S[dP]P); lactam 2-11)	1

Continued, molecule first:

Compound	Escherichia coli ATCC 25922 MIC [2] [µg/mL]	Klebsiella pneumoniae ATCC 13883 MIC [3] [µg/mL]	Acinetobacter baumannii DSM 30008 MIC [4] [µg/mL]	Hemolysis at 100 μg/mL [1] [%]
CC(C)C[C@@H]1NC(=O)[C@@H]2CCCN2C(=O)[C@H]2CCCN2C(=O)[C@H](CO)NC(=O)[C@@H]2CCCCNC(=O)C[C@H](NC1=O)C(=O)N[C@@H](Cc1ccc(O)cc1)C(=O)N[C@@H](CCN)C(=O)N[C@@H](CCCN)C(=O)N[C@H](CCN)C(=O)N[C@@H](CCN)C(=O)N[C@@H](Cc1c[nH]c3ccccc13)C(=O)N[C@@H](CCN)C(=O)N[C@@H](C(C)(C)C)C(=O)N2 [Example 24, cyclo(-Leu-Asp-Tyr-Dab-Orn-^DDab-Dab-Trp-Dab-tBuGly-Lys-Ser-^DPro-Pro-)] (HELM PEPTIDE1{L.D.Y.[Dab].[Orn].[NCC[C@@H](N[*:1])C(=O)[*:2]].[Dab].W.[Dab].[CC(C)(C)[C@H](N[*:1])C(=O)[*:2]].K.S.[dP].P}$PEPTIDE1,PEPTIDE1,2:R3-11:R3|PEPTIDE1,PEPTIDE1,1:R1-14:R2$$$V2.0)	0.5	0.5	1	0.5
CC(C)C[C@@H]1NC(=O)[C@@H]2CCCN2C(=O)[C@H]2CCCN2C(=O)[C@H](CO)NC(=O)[C@@H]2CCCCNC(=O)C[C@H](NC1=O)C(=O)N[C@@H](Cc1ccc(O)cc1)C(=O)N[C@@H](CCN)C(=O)N[C@@H](CCCN)C(=O)N[C@@H](CCN)C(=O)N[C@@H](CCN)C(=O)N[C@@H](Cc1c[nH]c3ccccc13)C(=O)N[C@@H](CCN)C(=O)N[C@@H](C(C)(C)C)C(=O)N2 [Example 25, cyclo(-Leu-Asp-Tyr-Dab-Orn-Dab-Dab-Trp-Dab-tBuGly-Lys-Ser-^DPro-Pro-)] (HELM PEPTIDE1{L.D.Y.[Dab].[Orn].[Dab].[Dab].W.[Dab].[CC(C)(C)[C@H](N[*:1])C(=O)[*:2]].K.S.[dP].P}$PEPTIDE1,PEPTIDE1,2:R3-11:R3|PEPTIDE1,PEPTIDE1,1:R1-14:R2$$$V2.0)	1	1	2	0
CC(C)C[C@@H]1NC(=O)[C@@H]2CCCN2C(=O)[C@H]2CCCN2C(=O)[C@H](CO)NC(=O)[C@@H]2CCC(=O)NC[C@H](NC1=O)C(=O)N[C@@H](Cc1ccc(O)cc1)C(=O)N[C@@H](CCN)C(=O)N[C@@H](CCCN)C(=O)N[C@@H](CCN)C(=O)N[C@@H](CCN)C(=O)N[C@@H](Cc1c[nH]c3ccccc13)C(=O)N[C@@H](CCN)C(=O)N[C@@H](C(C)(C)C)C(=O)N2 [Example 26, cyclo(-Leu-Dap-Tyr-Dab-Orn-Dab-Dab-Trp-Dab-tBuGly-Glu-Ser-^DPro-Pro-)] (HELM PEPTIDE1{L.[O=C([C@H](CN[*:3])N[*:1])[*:2]].Y.[Dab].[Orn].[Dab].[Dab].W.[Dab].[CC(C)(C)[C@H](N[*:1])C(=O)[*:2]].E.S.[dP].P}$PEPTIDE1,PEPTIDE1,2:R3-11:R3|PEPTIDE1,PEPTIDE1,1:R1-14:R2$$$V2.0)	4	1	4	0
CC(C)[C@@H]1NC(=O)[C@@H]2CCCN2C(=O)[C@H]2CCCN2C(=O)[C@H](CO)NC(=O)[C@@H]2CC(=O)NCC[C@H](NC1=O)C(=O)N[C@@H](Cc1ccc(O)cc1)C(=O)N[C@@H](CCN)C(=O)N[C@@H](CCN)C(=O)N[C@H](CCN)C(=O)N[C@@H](CCN)C(=O)N[C@@H](Cc1c[nH]c3ccccc13)C(=O)N[C@@H](CCN)C(=O)N[C@@H](C(C)(C)C)C(=O)N2 [Example 28] (HELM PEPTIDE1{V.[Dab].Y.[Dab].[Dab].[NCC[C@@H](N[*:1])C(=O)[*:2]].[Dab].W.[Dab].[CC(C)(C)[C@H](N[*:1])C(=O)[*:2]].D.S.[dP].P}$PEPTIDE1,PEPTIDE1,2:R3-11:R3|PEPTIDE1,PEPTIDE1,1:R1-14:R2$$$V2.0)	0.5	0.5	2	1
CC(C)C[C@@H]1NC(=O)[C@@H]2CCCN2C(=O)[C@H]2CCCN2C(=O)[C@H](CO)NC(=O)[C@@H]2CCC(=O)NC[C@H](NC1=O)C(=O)N[C@@H](Cc1ccc(O)cc1)C(=O)N[C@@H](CCN)C(=O)N[C@@H](CCCN)C(=O)N[C@H](CCN)C(=O)N[C@@H](CCN)C(=O)N[C@@H](Cc1c[nH]c3ccccc13)C(=O)N[C@@H](CCN)C(=O)N[C@@H](C(C)(C)C)C(=O)N2 [Example 29, cyclo(-Leu-Dap-Tyr-Dab-Orn-^DDab-Dab-Trp-Dab-tBuGly-Glu-Ser-^DPro-Pro-)] (cyclo(L[Dap]Y[Dab][Orn][dDab][Dab]W[Dab][Tle]ES[dP]P); lactam 2-11)	1	0.5	1	0.5
CC(C)C[C@@H]1NC(=O)[C@@H]2CCCN2C(=O)[C@H]2CCCN2C(=O)[C@H](CO)NC(=O)[C@@H]2CCC(=O)NCC[C@H](NC1=O)C(=O)N[C@@H](Cc1ccc(O)cc1)C(=O)N[C@@H](CCN)C(=O)N[C@@H](CCCN)C(=O)N[C@H](CCN)C(=O)N[C@@H](CCN)C(=O)N[C@@H](Cc1c[nH]c3ccccc13)C(=O)N[C@@H](CCN)C(=O)N[C@@H](C(C)(C)C)C(=O)N2 [Example 30, cyclo(-Leu-Dab-Tyr-Dab-Orn-^DDab-Dab-Trp-Dab-tBuGly-Glu-Ser-^DPro-Pro-)] (HELM PEPTIDE1{L.[Dab].Y.[Dab].[Orn].[NCC[C@@H](N[*:1])C(=O)[*:2]].[Dab].W.[Dab].[CC(C)(C)[C@H](N[*:1])C(=O)[*:2]].E.S.[dP].P}$PEPTIDE1,PEPTIDE1,2:R3-11:R3|PEPTIDE1,PEPTIDE1,1:R1-14:R2$$$V2.0)	1	2	1	0.5
